Assays:
SW620 cells = test: Annexin V-FITC/PI flow cytometry, SW620; type: cell-based, human; conditions: SW620, IC50 dose, 72 h
Procedure: The cells were cultured and harvested under the conditions described in the cell culture section. […] The effect of these compounds on the process of early and late apoptosis and necrosis was determined, as described previously, by dual staining with annexin V-FITC and propidium iodide according to manufacturer’s protocol (Becton Dickinson). The cells that were annexin V-FITC positive and PI-negative were identified as early apoptotic and annexin V-FITC and PI-positive as late apoptotic or necrotic.

[1] = tested on: C. parapsilosis ATCC 22019; test: MIC, twofold serial microdilution; type: cell-based, Candida parapsilosis; conditions: C. parapsilosis ATCC 22019, 24 h, 35 °C
Procedure: (§1) The antimicrobial activity of the compounds was tested on Gram-positive bacteria (Staphylococcus aureus NCTC 4163, Staphylococcus aureus ATCC 25923, Staphylococcus aureus ATCC 6538, Staphylococcus aureus ATCC 29213, Staphylococcus epidermidis ATCC 12228, Staphylococcus epidermidis ATCC 35984), Gram-negative rods (Escherichia coli ATCC 10538, Escherichia coli ATCC 25922, Pseudomonas aeruginosa ATCC 15442, Pseudomonas aeruginosa ATCC 27863) and yeasts (Candida albicans ATCC 10231, Candida albicans ATCC 90028, Candida parapsilosis ATCC 22019). Hospital methicillin-resistant strains of Staphylococcus aureus and Staphylococcus epidermidis were obtained from the collection of the Department of Pharmaceutical Microbiology, Medical University of Warsaw, Poland.
(§2) Antifungal activities were assessed using Mueller–Hinton agar + 2% glucose and 0.5 µg/mL methylene blue dye medium. Sterile filter paper discs (9 mm diameter, Whatman Number 3 chromatography paper) were dripped with tested compound solutions (in dimethylsulfoxide, DMSO) to load 400 μg of a given compound per disc. Dry discs were placed on the surface of appropriate agar medium. The results (diameter of the growth inhibition zone) were read after 18 h of incubation at 35 °C. Minimal inhibitory concentration (MIC) was tested by the twofold serial microdilution method (in 96-well microtiter plates) using Mueller–Hinton broth medium (Beckton Dickinson) for bacteria or RPMI-1640 medium for Candida species, according to CLSI guidelines. The stock solution of tested agent was prepared in DMSO and diluted in sterile water. […] The final inoculum of all studied microorganisms was 10^5 CFU/ mL^−1 (colony forming units per ml). Minimal inhibitory concentrations (the lowest concentration of a tested agent that prevents visible growth of a microorganism) were read after 18 h (bacteria) or 24 h (yeasts) of incubation at 35 °C.

[2] = tested on: SW620 (human metastatic colon cancer); test: MTT cytotoxicity assay, SW620; type: cell-based; conditions: SW620, 72 h
Procedure: (§3) The human primary (SW480), metastatic (SW620) colon cancer, metastatic prostate cancer (PC3) and human immortal keratinocyte (HaCaT) cell lines were purchased from the American Type Culture Collection (ATCC, Rockville, USA). The cells were cultured in medium according to protocols (MEM for SW480 and SW620, RPMI 1640 for PC3 and DMEM for HaCaT cells) supplemented with 10% fetal bovine serum (FBS), penicillin (100 U/mL) and streptomycin (100 μg/mL) and cultured in 37 °C/ 5% CO2 humidified incubator. The cells were cultured until appropriate confluence was achieved (80–90%). Next, they were harvested by treatment with 0.25% trypsin (Gibco Life Technologies, USA) and used for studies.
(§4) Cells without studied compounds in medium were used as a control.
(§5) The cell viability was assessed by determination of MTT salt (3-(4,5-dimethylthiazol-2-yl)-2,5-diphenyltetrazolium bromide) conversion by mitochondrial dehydrogenase. MTT assay was performed as previously described. Experiments were repeated three times. Cell viability was presented as a percentage of MTT reduction in the treated cells versus the control cells. Number of viable cells cultured without studied compounds was assumed to be 100%. Decreased relative MTT level means decreased cell viability.

[3] = tested on: clinical methicillin-resistant strains of S. aureus (MRSA) and S. epidermidis (MRSE); test: MIC, clinical strains; type: cell-based, Staphylococcus
Procedure: as §1, §2

[4] = tested on: PC3 (human metastatic prostate cancer); test: MTT cytotoxicity assay, PC3; type: cell-based; conditions: for IC50: PC3, 72 h, MTT; for fold more active than cisplatin: PC3 cell lines
Procedure: as §3, §4
as §5, with “viability. Thiourea complexes with the highest cytotoxic potential assessed by MTT determination (with the lowest IC50) were chosen for subsequent assessments of cytotoxicity mechanisms.” for “viability.”

[5] = tested on: SW480, SW620, PC3 cancer cells; test: MTT cytotoxicity assay, all cancer cell lines; type: cell-based, human; conditions: span or bound over SW480, SW620, PC3; 72 h; read-out: IC50 over the tested cancer cell lines
Procedure: as §3, §4
as §5, with “viability. Thiourea complexes with the highest cytotoxic potential assessed by MTT determination (with the lowest IC50) were chosen for subsequent assessments of cytotoxicity mechanisms.” for “viability.”

Candida species = test: MIC, Candida species; type: cell-based; conditions: studied Candida species
Procedure: as §1, §2

Compound | early apoptosis, % of cells (SW620 cells) | MIC [1] [µg/mL] | IC50 [2] [µM] | MIC [3] [µg/mL] | IC50 [4] [µM] | fold more active than cisplatin [4] | IC50 [5] [µM] | growth inhibitory dose (Candida species) [µg/mL]
O=[N+]([O-])c1cc([N+]2=C(Nc3ccccc3Br)[S][Cu-2]23[S]C(Nc2ccccc2Br)=[N+]3c2ccc(Cl)c([N+](=O)[O-])c2)ccc1Cl [Compound 1, Copper (II) complex with 1-(2-bromophenyl)-3-(4-chloro-3-nitrophenyl)thiourea] | 38.4% ± 2.4% | ≥256 | 3.3 ± 0.2 | 4 to 8 | 9.7 ± 0.1 | 1.2–3.1 fold | – | –
O=[N+]([O-])c1cc([N+]2=C(Nc3ccc(Cl)c(Cl)c3)[S][Cu-2]23[S]C(Nc2ccc(Cl)c(Cl)c2)=[N+]3c2ccc(Cl)c([N+](=O)[O-])c2)ccc1Cl [Compound 5, Copper (II) complex with 1-(4-chloro-3-nitrophenyl)-3-(3,4-dichlorophenyl)thiourea] | – | 64 | 10.8 ± 2.6 | – | 11.4 ± 2.4 | 1.2–3.1 fold | ≤ 10 | –
O=[N+]([O-])c1cc([N+]2=C(Nc3ccc(I)cc3)[S][Cu-2]23[S]C(Nc2ccc(I)cc2)=[N+]3c2ccc(Cl)c([N+](=O)[O-])c2)ccc1Cl [Compound 8, Copper (II) complex with 1-(4-iodophenyl)-3-(4-chloro-3-nitrophenyl)thiourea] | approximately 20% | 64 | 17.8 ± 1.3 | 4 to 8 | 4.3 ± 0.5 | 1.2–3.1 fold | – | 64
O=[N+]([O-])c1cc([N+]2=C(Nc3ccccc3F)[S][Cu-2]23[S]C(Nc2ccccc2F)=[N+]3c2ccc(Cl)c([N+](=O)[O-])c2)ccc1Cl [Compound 7, Copper (II) complex with 1-(2-fluorophenyl)-3-(4-chloro-3-nitrophenyl)thiourea] | 35.4% ± 2.8% | 128 | 9.1 ± 0.8 | 4 to 8 | 10.8 ± 1.3 | 1.2–3.1 fold | ≤ 10 | –
O=[N+]([O-])c1cc([N+]2=C(Nc3ccc(Br)cc3)[S][Cu-2]23[S]C(Nc2ccc(Br)cc2)=[N+]3c2ccc(Cl)c([N+](=O)[O-])c2)ccc1Cl [Compound 3, Copper (II) complex with 1-(4-bromophenyl)-3-(4-chloro-3-nitrophenyl)thiourea] | approximately 20% | 64 | 19.2 ± 2.3 | – | 8.8 ± 0.8 | 1.2–3.1 fold | ≤ 10 | 64
O=[N+]([O-])c1cc(NC2=[N+](c3ccc(Cl)c([N+](=O)[O-])c3)[Cu-2]3([S]2)[S]C(Nc2ccc(Cl)c([N+](=O)[O-])c2)=[N+]3c2ccc(Cl)c([N+](=O)[O-])c2)ccc1Cl [Compound 6, Copper (II) complex with 1,3-bis(4-chloro-3-nitrophenyl)thiourea] | – | 64 | 21.5 ± 1.4 | – | 20.3 ± 3.1 | – | ≥ 20.3 | 64
O=[N+]([O-])c1cc([N+]2=C(Nc3ccc(F)c(Cl)c3)[S][Cu-2]23[S]C(Nc2ccc(F)c(Cl)c2)=[N+]3c2ccc(Cl)c([N+](=O)[O-])c2)ccc1Cl [Compound 4, Copper (II) complex with 1-(3-chloro-4-fluorophenyl)-3-(4-chloro-3-nitrophenyl)thiourea] | – | 64 | 21.6 ± 2.9 | 4 to 8 | 23.2 ± 1.6 | – | – | –
O=[N+]([O-])c1cc([N+]2=C(Nc3cccc(Br)c3)[S][Cu-2]23[S]C(Nc2cccc(Br)c2)=[N+]3c2ccc(Cl)c([N+](=O)[O-])c2)ccc1Cl [Compound 2, Copper (II) complex with 1-(3-bromophenyl)-3-(4-chloro-3-nitrophenyl)thiourea] | – | 64 | 22.3 ± 1.8 | 4 to 8 | 19.2 ± 2.2 | – | – | 64
